Source: patent US6987088B2, “Compounds that bind HER2” (Genentech, Inc., priority 1999, dated 2006)
“Also recorded” adds a separate entry of the source. Where no end group is shown, it is not given here.

Tests used:
[1] = target: T1, HER2-ECD (Homo sapiens, UniProt P04626); assay: HER2 competition ELISA (block binding of 1.1.FI-Zb to immobilized HER2-ECD); settings: for HER2 binding activity of Superdex 75 fractions (active species): monomer and dimer fractions assayed in HER2 competition ELISA; for IC50: read-out: IC50, block binding of 1.1.FI-Zb to immobilized HER2, HER2 competition ELISA, 40 nM biotinylated 1.1.FI-Z
T1 construct: immobilized extracellular domain of Erb2 (HER2-ECD, Hudziak et al. (1991) J. Biol. Chem. 266:24109-15)
Protocol: By way of exemplification and not limitation an ELISA assay can be conducted wherein microtiter plates (for example, Nunc Maxisorp™ 96-well plates, Inter Med, Denmark) are coated with HER2-ECD in 50 mM ammonium bicarbonate, pH 9.3, using 5 μg/ml, overnight at 4° C. Wells can be blocked using PBS containing 1% BSA (PBS-BSA) for 1 hr at 25° C. […] Following an incubation of about 1 hour the plate is washed with PBS-TWEEN and Strepavidin-HRP is added for about 30 min. Plates are washed again with PBS-TWEEN and the bound HRP assayed using ABTS/H2O2 substrate. The change in absorbance at 405 nm is monitored. Decrease in absorbance is plotted vs. sample concentration and an IC50 for each candidate peptide ligand is determined.
Following a 1 h incubation the plate was washed with PBS-Tween and Strepavidin/HRP conjugate (Streptavidin-POD, Roche Molecular Biochemicals) was added for 30 min. Plates were washed again with PBS-Tween and the bound HRP was assayed using ABTS/H2O2 substrate (Kirkegaard & Perry Laboratories) and the absorbance at 405 nm was monitored. […] Fractions from the HPLC were tested for their ability to compete in the HER2 competition ELISA.

[2] = target: T2, HER2 expressed on cells (Homo sapiens, UniProt P04626); assay: Cell binding by FACS analysis (BT 474, MDA 361, BaF3); assay type: cell-based; settings: BT 474 (3×10^6 receptors/cell), MDA 361 (4×10^5 receptors/cell), BaF3 (no HER2); 0, 0.5 or 5 μM
T2 construct: Cells expressing HER2 (BT 474 [3+], MDA 361 [2+], and BaF3 [0+]); endogenous in cells; host or cells: BT 474, MDA 361 (BaF3 as control line without HER2)

[3] = target: T1, HER2-ECD; assay: Phage binding assay, immobilized HER2-ECD
Protocol: (§1) • Selection Conditions—HER2-ECD was immobilized directly to maxisorp plates in 50 mM ammonium bicarbonate, pH 9.3, using 5 μg/ml, overnight at 4° C. Wells were blocked using PBS containing 1% BSA (PBS-BSA) for 1 hr at 25° C. Phage from each pool were incubated in wells containing HER2-ECD in PBS-BSA for 3 hr at 25° C.; generally about 5×10^10 phage were added at the beginning of each round. Unbound phage were removed by repetitive washing with PBS containing 0.05% Tween 20 (PBS-Tween); remaining phage were eluted with 500 mM KCl, 10 mM HCl, pH 2. The eluted phage were then amplified in XL1-Blue cells with VCSM13 helper phage (Stratagene) overnight at 37° C. IPTG (10 μM) was added only to the initial phage libraries and during amplification following round 1; later rounds relied on basal expression of the tac promoter for production of peptide-pVIII expression. Enrichment was monitored by titering the number of phage which bound to a target coated well compare to a well coated with BSA. • HER2 Phage Binding Assay—Inhibition of binding of phage displaying a single copy of peptide 1.1FI (Table 1) on their surface to the immobilized extracellular domain of Erb2 (HER2-ECD, Hudziak et al. (1991) J. Biol. Chem. 266:24109-15) was monitored using a phage ELISA. HER2-ECD was immobilized directly to Maxisorp plates (Nunc) in 50 mM ammonium bicarbonate, pH 9.3, using 5 μg/ml, overnight at 4° C. Wells were blocked using PBS containing 1% BSA (PBS-BSA) for 1 h at 25° C. Dilutions of 1.1FI-Fc in PBS-BSA were tested for their ability to block the binding of 1.1FI displaying phage to the immobilized HER2-ECD. The microtiter plate was washed with PBS containing 0.05% Tween20 (PBS-Tween) and the phage bound to HER2-ECD were detected with an anti-gVIII/HRP monoclonal antibody conjugate (Amersham Pharmacia Biotech). The amount of HRP bound Was measured using ABTS/H2O2 substrate and monitoring the change at 405 nm. Results • Selection of Polyvalent Peptide-Phage That Bind to HER2-ECD—Polyvalent peptide libraries were sorted in 7 pools (Table 1) against immobilized HER2-ECD. […]

[4] = target: HER3 (Homo sapiens, UniProt P21860); assay: Phage binding assay, HER3
[5] = target: HER4 (Homo sapiens, UniProt Q15303); assay: Phage binding assay, HER4
[6] = target: BSA (Bos taurus, UniProt P02769); assay: Phage binding assay, immobilized BSA
Protocol: as §1

[7] = target: T3, immobilized HER2 (Homo sapiens, UniProt P04626); assay: Binding of Class 1 and Class 7 phage clones to immobilized HER2 in the presence of peptide
T3 construct: immobilized extracellular domain of Erb2 (HER2-ECD, Hudziak et al. (1991) J. Biol. Chem. 266:24109-15)

Chain of HER3 (P21860 20-1342, species assumed): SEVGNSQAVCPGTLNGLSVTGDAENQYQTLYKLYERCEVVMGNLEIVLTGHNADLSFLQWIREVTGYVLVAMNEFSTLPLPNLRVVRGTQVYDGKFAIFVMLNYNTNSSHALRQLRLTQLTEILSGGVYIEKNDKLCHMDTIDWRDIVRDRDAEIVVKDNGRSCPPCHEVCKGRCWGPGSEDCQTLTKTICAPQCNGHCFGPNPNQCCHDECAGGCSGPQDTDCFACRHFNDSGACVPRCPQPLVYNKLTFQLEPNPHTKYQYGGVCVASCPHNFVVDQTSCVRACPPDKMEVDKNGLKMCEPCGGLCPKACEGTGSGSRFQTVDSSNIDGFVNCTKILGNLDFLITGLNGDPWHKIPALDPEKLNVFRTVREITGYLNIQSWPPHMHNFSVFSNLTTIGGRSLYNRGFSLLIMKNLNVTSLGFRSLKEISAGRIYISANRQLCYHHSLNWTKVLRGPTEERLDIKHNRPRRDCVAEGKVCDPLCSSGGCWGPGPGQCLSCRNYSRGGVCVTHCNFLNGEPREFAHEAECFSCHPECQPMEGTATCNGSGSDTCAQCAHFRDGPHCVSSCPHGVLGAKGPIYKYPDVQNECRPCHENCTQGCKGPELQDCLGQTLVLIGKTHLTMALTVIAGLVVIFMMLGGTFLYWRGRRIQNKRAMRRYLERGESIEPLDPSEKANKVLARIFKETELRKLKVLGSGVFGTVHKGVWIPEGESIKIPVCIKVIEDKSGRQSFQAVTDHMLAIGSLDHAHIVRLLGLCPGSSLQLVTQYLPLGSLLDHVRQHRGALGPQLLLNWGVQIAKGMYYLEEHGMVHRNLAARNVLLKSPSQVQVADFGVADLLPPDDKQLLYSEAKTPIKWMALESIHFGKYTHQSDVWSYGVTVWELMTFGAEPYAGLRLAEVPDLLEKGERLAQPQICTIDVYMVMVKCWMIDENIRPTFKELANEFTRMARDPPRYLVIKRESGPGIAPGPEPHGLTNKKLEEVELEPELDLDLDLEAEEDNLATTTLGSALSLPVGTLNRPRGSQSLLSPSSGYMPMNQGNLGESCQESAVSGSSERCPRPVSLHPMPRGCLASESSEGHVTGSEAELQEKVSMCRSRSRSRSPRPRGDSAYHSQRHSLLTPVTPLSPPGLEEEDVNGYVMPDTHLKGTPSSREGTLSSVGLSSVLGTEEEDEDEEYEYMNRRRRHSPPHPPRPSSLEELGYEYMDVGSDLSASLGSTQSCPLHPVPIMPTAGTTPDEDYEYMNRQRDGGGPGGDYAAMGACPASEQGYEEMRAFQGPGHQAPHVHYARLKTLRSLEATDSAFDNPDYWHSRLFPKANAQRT
Chain of HER4 (Q15303 26-1308, species assumed): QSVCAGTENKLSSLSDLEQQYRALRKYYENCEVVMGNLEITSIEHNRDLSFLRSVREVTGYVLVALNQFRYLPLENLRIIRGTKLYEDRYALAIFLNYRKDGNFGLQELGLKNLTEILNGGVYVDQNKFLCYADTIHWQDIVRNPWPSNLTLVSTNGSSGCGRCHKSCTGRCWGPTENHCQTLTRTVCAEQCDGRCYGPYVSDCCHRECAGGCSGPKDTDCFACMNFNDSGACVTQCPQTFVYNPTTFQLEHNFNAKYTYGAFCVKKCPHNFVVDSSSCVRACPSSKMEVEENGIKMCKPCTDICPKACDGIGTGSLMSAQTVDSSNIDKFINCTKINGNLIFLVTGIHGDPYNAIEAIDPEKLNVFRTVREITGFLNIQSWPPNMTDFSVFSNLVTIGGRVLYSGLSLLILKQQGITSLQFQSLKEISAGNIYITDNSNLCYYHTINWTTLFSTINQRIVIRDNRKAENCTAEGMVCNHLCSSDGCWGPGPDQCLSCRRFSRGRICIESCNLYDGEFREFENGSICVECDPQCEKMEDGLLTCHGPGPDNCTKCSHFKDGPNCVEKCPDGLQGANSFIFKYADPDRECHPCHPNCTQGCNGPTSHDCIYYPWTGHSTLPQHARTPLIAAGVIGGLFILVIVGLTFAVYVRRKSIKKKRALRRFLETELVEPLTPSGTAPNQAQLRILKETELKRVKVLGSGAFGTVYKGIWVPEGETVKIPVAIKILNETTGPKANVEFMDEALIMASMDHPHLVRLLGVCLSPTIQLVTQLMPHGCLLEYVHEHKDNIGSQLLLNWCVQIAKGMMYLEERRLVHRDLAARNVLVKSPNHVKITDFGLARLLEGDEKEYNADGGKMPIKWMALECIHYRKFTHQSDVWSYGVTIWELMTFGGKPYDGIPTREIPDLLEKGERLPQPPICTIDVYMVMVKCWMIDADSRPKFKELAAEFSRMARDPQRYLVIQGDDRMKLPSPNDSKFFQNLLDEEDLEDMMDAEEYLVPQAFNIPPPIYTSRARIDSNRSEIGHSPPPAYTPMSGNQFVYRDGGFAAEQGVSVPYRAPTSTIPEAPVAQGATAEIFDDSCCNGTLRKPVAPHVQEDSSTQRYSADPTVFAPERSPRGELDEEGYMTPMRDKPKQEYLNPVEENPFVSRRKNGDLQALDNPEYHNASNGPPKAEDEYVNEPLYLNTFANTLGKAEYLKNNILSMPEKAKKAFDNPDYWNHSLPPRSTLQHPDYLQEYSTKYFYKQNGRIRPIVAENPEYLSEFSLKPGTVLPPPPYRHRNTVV
Chain of BSA (P02769 25-607): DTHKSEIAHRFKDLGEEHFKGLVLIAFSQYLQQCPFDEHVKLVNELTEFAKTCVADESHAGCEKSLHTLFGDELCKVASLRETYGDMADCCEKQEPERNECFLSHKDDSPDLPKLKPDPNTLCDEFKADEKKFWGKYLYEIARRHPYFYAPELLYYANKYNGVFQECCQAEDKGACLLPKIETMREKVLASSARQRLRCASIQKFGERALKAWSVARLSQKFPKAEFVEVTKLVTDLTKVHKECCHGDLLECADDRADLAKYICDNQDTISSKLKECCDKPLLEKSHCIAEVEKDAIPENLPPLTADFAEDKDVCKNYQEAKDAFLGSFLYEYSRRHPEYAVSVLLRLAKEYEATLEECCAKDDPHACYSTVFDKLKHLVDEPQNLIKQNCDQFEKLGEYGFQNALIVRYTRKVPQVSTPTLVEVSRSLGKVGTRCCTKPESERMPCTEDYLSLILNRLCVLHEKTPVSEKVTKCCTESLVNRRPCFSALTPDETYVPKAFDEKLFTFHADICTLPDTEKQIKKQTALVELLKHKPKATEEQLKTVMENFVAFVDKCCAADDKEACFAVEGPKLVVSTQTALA

Row | Substance | Phage binding to immobilized HER2-ECD [3] | Phage binding to HER3 [4] | Phage binding to HER4 [5] | Phage binding to immobilized BSA [6] | other results
1 | 1.1.FI-Z: peptide 1.1.FI expressed and secreted from E. coli as a fusion to the Z domain of protein A (QVYESWGCIGPGCACLQACL) | – | – | – | – | HER2 binding activity of Superdex 75 fractions (active species) [1]: coincided with the dimer fractions rather than the monomer fractions; also recorded: coinciding with dimer fractions; IC50 [1]: 50 nM
2 | 1.1.FI-Zb: biotinylated 1.1.FI-Z preparation (QVYESWGCIGPGCACLQACL; cysteine pairing not given here; also: biotinylated (NHS-LC-biotin), fused to Z domain (not in chain)) | – | – | – | – | Binding to cells by FACS [2]: bind cells proportional to the number of HER2 receptors expressed on the cell
3 | (FI)2-Z: 1.1.FI sequence repeated twice and fused to the Z domain of protein A, single chain dimer (QVYESWGCIGPGCACLQACLGGGSGGQVYESWGCIGPGCACLQACL; cysteine pairing not given here; also: fused to the Z domain of protein A (end not given here)) | – | – | – | – | HER2 binding activity of Superdex 75 fractions (active species) [1]: the active species was now identified as monomer; HER2 binding activity of Superdex 75 fractions (active species) ([1]; listed as (1.1FI)2-Z): coinciding with monomer fractions
4 | CSWVLVQCGGEWWHCCGLGCGLVVNAC (cysteine pairing not given here) [7.1] | bind | not | not | not | –
5 | R S C A D V A S R C W E H C I T [5.1] | bind | not | not | not | –
6 | YEVEAWDCMGPGCANLFEAH [1.1] | bind | not | not | not | –
7 | YSFEGWGCIGPGCAYLFEGH (cysteine pairing not given here) [HER201] | – | – | – | – | Blocking of binding of Class 1 and Class 7 phage to immobilized HER2 [7]: block the binding of both Class 1 and Class 7 phage
8 | active fraction: HPLC fraction of trypsin-digested 1.1.FI-Z; mass corresponding to HER212 sequence, found to contain dimer (QVYESWGCIGPGCACLQACL; cysteine pairing not given here; also: fraction found to contain dimer) | – | – | – | – | IC50 [1]: 3 nM
